{
  "source": "patent US20220096505A1",
  "about": "“PHARMACEUTICAL COMPOSITION, METHODS FOR TREATING AND USES THEREOF” (Boehringer Ingelheim International GmbH, priority 2011, published 2022)",
  "key": {"[1]": {"experiment": "Particle size distribution measurement by laser diffraction", "type": "physicochemical", "details": "milled active substance", "excerpt": "The value X90 refers to the 90% value of the volume distribution measured using a laser diffractometer. In other words, for the purposes of the present invention, the X90 value denotes the particle size below which 90% of the quantity of particles is found based on the volume distribution. Analogously the value X50 refers to the 50% value (median) of the volume distribution measured using a laser diffractometer. In other words, for the purposes of the present invention, the X50 value denotes the particle size below which 50% of the quantity of particles is found based on the volume distribution. Analogously the value X10 refers to the 10% value of the volume distribution measured using a laser diffractometer. In other words, for the purposes of the present invention, the X10 value denotes the particle size below which 10% of the quantity of particles is found based on the volume distribution.\nPreferably all X90, X50, X10 values hereinbefore and hereinafter are by volume and determined by laser-diffraction method, in particular low angle laser light scattering, i.e. Fraunhofer diffraction. A preferred test is described in the experimental section. The laser diffraction method is sensitive to the volume of a particle and provides a volume-average particle size, which is equivalent to the weight-average particle size if the density is constant. The skilled artesian knows that the results of the particle size distribution determination by one technique can be correlated with that from another technique, for example on an empirical basis by routine experimentation. Alternatively the particle size distribution in the pharmaceutical composition or dosage form can be determined by microscopy, in particular electron microscopy or scanning electron microscopy.\nExamples of typical particle size distribution values X90, X50 and X10 for the preferred active pharmaceutical ingredient according to the invention are shown in the table below.\n3. Particle Size Distribution Measurement by Laser Diffraction\nParticle size distribution measurement is performed for example via light scattering or laser diffraction technique. To determine the particle size the powder is fed into a laser diffraction spectrometer for example by means of a dispersing unit. The test method is described below in detail:\nEquipment: Laser Diffraction Spectrometer Sympatec HELOS Particle Sizer.\nLens: R31 (0.5/0.9 μm-175 μm) Sample Dispersing Unit: Dry disperser RODOS/M\nFeed Velocity: 60.00 mm/s Primary pressure: 2.00 bar Injector depression: maximize (mbar)2 Reference Measurement: 10 seconds Cycle Time: 100 msec Trigger Conditions: Start 0.0 seconds after optical concentration ≥1% valid always Stop after 5.0 seconds optical concentration ≤1% or after 30 seconds real time Optical Concentration: Approximately range 3-12%\nNumber of measurements: 2 (duplicate)\nThe instrument is set up according to the manufacturer's recommendation and using the manufacturer provided software. The sample container is thoroughly mixed and tumbled prior to removing a portion of the sample to ensure that a representative sample is tested. Duplicate samples are prepared by using a spatula to transfer approximately 100 mg of a sample into the ASPIROS glass vials and cap the vials. The capped cials are placed into the feeder."}, "[2]": {"details": "in vivo; cited from earlier work"}, "[3]": {"details": "metformin on its own, in the diabetic; cited from earlier work"}, "[4]": {"details": "listed as Active substance Batch 1"}, "[5]": {"details": "listed as Active substance Batch 2"}},
  "data": [
    {"molecule": "1-chloro-4-(β-D-glucopyranos-1-yl)-2-[4-((S)-tetrahydrofuran-3-yloxy)-benzyl]-benzene [compound (I.9)]", "values": [
      {"measurement": "X10 (10% value of the volume distribution, particle size)", "setting": "[1]; [4]", "value": 1.8, "unit": "μm"},
      {"measurement": "X50 (50% value, median, of the volume distribution, particle size)", "setting": "[1]; [4]", "value": 18.9, "unit": "μm"},
      {"measurement": "X90 (90% value of the volume distribution, particle size)", "setting": "[1]; [4]", "value": 45.3, "unit": "μm"},
      {"measurement": "X10 (10% value of the volume distribution, particle size)", "setting": "[1]; [5]", "value": 1.7, "unit": "μm"},
      {"measurement": "X50 (50% value, median, of the volume distribution, particle size)", "setting": "[1]; [5]", "value": 12.1, "unit": "μm"},
      {"measurement": "X90 (90% value of the volume distribution, particle size)", "setting": "[1]; [5]", "value": 25.9, "unit": "μm"}
    ]},
    {"molecule": "CC#CCn1c(N2CCC[C@@H](N)C2)nc2c1c(=O)n(Cc1nc(C)c3ccccc3n1)c(=O)n2C", "note": "[linagliptin]", "values": [
      {"measurement": "route of excretion", "setting": "[2]", "value": "primarily excreted by bile and the gut"}
    ]},
    {"molecule": "CN(C)C(=N)N=C(N)N", "note": "[metformin]", "values": [
      {"measurement": "average improvement in the HbA1c value", "setting": "[3]", "value": "1.0-1.5%"}
    ]}
  ]
}
